Assay results as given in US20250154144A1 (CHILDREN'S HOSPITAL MEDICAL CENTER, priority 2021, published 2025).
Like-named read-outs stand apart in the source and are kept apart here.

Tests used:
IRAK1 = IRAK1 (Homo sapiens, UniProt P51617); test: RBC HotSpot Kinase Assay, IRAK1
IRAK4 = target: T1, IRAK4 (Homo sapiens, UniProt Q9NWZ3); test: RBC HotSpot Kinase Assay, IRAK4
T1 sequence (Q9NWZ3 1-460): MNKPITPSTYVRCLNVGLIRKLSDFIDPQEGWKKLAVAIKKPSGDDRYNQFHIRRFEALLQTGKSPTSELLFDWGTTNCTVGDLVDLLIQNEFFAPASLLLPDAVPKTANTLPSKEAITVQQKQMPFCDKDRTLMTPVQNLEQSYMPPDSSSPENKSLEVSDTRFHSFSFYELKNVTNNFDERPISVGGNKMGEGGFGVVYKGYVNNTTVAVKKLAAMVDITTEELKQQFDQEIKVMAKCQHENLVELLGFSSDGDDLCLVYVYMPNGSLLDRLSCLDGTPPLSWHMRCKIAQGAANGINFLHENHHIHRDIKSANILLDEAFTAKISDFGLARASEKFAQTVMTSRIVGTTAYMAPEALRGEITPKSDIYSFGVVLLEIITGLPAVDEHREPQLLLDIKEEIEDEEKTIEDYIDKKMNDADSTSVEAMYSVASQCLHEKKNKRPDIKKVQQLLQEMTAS

FLT3 = target: T2, FLT3 (Homo sapiens, UniProt P36888); test: RBC HotSpot Kinase Assay, FLT3
T2 sequence (P36888 610-943 limits assumed): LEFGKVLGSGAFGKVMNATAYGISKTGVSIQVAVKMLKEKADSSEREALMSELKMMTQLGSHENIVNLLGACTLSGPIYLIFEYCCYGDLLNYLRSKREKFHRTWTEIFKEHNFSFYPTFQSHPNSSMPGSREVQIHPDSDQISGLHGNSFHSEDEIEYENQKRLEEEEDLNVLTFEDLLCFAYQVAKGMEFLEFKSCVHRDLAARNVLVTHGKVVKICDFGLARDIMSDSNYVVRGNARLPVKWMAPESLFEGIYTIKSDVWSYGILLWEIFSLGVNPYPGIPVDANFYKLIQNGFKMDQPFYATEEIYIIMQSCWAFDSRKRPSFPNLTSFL

IRAK1, sequence (P51617 whole entry): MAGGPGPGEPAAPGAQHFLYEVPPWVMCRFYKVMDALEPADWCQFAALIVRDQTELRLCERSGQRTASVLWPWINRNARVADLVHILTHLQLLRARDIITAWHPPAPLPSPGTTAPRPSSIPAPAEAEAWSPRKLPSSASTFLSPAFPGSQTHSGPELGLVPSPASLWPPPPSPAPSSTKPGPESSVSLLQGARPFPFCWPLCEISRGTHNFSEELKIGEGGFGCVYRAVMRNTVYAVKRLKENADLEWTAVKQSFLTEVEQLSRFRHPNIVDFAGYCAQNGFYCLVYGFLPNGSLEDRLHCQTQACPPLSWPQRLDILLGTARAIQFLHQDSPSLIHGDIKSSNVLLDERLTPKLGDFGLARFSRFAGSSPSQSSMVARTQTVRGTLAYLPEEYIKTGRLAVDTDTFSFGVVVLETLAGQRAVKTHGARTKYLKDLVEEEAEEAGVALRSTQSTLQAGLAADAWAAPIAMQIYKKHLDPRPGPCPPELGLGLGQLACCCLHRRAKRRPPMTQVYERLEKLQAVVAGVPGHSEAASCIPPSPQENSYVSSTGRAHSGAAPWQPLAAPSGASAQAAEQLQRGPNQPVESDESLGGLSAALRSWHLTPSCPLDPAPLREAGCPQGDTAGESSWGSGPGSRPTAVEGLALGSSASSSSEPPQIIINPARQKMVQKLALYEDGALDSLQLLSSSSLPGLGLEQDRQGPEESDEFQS

| IC50 (IRAK1; IRAK1 IC50) | IC50 (IRAK4; IRAK4 IC50) | IC50 (FLT3; FLT3 IC50) | IC50 (IRAK1; read-out: IRAK1 IC50) | IC50 (IRAK4; read-out: IRAK4 IC50) | IC50 (FLT3; read-out: FLT3 IC50) | SMILES |
| --- | --- | --- | --- | --- | --- | --- |
| < 0.5 nM | < 0.5 nM | < 0.5 nM | – | – | – | COc1cc2ncc(-c3cncc(N[C@H]4CNCC[C@@H]4F)n3)n2cc1C(C)(O)C(F)(F)F (single isomer, unassigned) [Compound 65] |
| – | – | – | < 0.5 nM | < 0.5 nM | < 0.5 nM | COc1cc2ncc(-c3cncc(N[C@H]4CNCC[C@@H]4F)n3)n2cc1C(C)(O)C(F)(F)F (single isomer, unassigned) [Compound 66] |
| 1020 nM | 367 nM | 6 nM | – | – | – | COc1cc2ncc(-c3cncc(N[C@H]4CNCC[C@@H]4F)n3)n2nc1C(C)(O)C(F)(F)F (single isomer, unassigned) [Compound 79] |
| 1120 nM | 406 nM | < 0.5 nM | – | – | – | COc1cc2ncc(-c3cncc(N[C@H]4CNCC[C@@H]4F)n3)n2nc1C(C)(O)C(F)(F)F (single isomer, unassigned) [Compound 80] |
| 7900 nM | 2540 nM | 8 nM | – | – | – | COc1cc2ncc(-c3cncc(N[C@H]4CNC[C@@H]4F)n3)n2nc1C(C)(O)C(F)(F)F (single isomer, unassigned) [Compound 81] |
| 5440 nM | 2040 nM | 67 nM | – | – | – | COc1cc2ncc(-c3cncc(N[C@@H]4CCCNC4)n3)n2nc1C(C)(O)C(F)(F)F (single isomer, unassigned) [Compound 82] |
| 4690 nM | 544 nM | 1 nM | – | – | – | COc1cc2ncc(-c3cncc(N[C@H]4CNC[C@@H]4F)n3)n2nc1C(C)(O)C(F)(F)F (single isomer, unassigned) [Compound 83] |
| 3020 nM | 512 nM | 2 nM | – | – | – | COc1cc2ncc(-c3cncc(N[C@@H]4CCCNC4)n3)n2nc1C(C)(O)C(F)(F)F (single isomer, unassigned) [Compound 84] |

Second part, the compound before the results:

| SMILES | IC50 (IRAK1; IRAK1 IC50) | IC50 (IRAK4; IRAK4 IC50) | IC50 (FLT3; FLT3 IC50) | IC50 (IRAK1; read-out: IRAK1 IC50) | IC50 (IRAK4; read-out: IRAK4 IC50) | IC50 (FLT3; read-out: FLT3 IC50) |
| --- | --- | --- | --- | --- | --- | --- |
| COc1cc2ncc(-c3ccnc(N[C@H]4CNC[C@@H]4F)n3)n2cc1C(C)(O)C(F)(F)F (single isomer, unassigned) [Compound 55] | < 0.5 nM | < 0.5 nM | < 0.5 nM | – | – | – |
| COc1cc2ncc(-c3ccnc(N[C@H]4CNC[C@@H]4F)n3)n2cc1C(C)(O)C(F)(F)F (single isomer, unassigned) [Compound 56] | – | – | – | < 0.5 nM | < 0.5 nM | < 0.5 nM |
| COc1cc2ncc(-c3ccnc(N[C@@H]4CCCNC4)n3)n2cc1C(C)(O)C(F)(F)F (single isomer, unassigned) [Compound 57] | < 0.5 nM | < 0.5 nM | < 0.5 nM | – | – | – |
| CC(O)(c1cn2c(-c3ccnc(N[C@H]4CNCC[C@@H]4F)n3)cnc2cn1)C(F)(F)F (single isomer, unassigned) [Compound 58] | 0.6 nM | < 0.5 nM | < 0.5 nM | – | – | – |
| COc1cc2ncc(-c3cncc(N[C@H]4CNC[C@@H]4F)n3)n2cc1C(C)(O)C(F)(F)F (single isomer, unassigned) [Compound 61] | < 0.5 nM | < 0.5 nM | < 0.5 nM | – | – | – |
| COc1cc2ncc(-c3cncc(N[C@H]4CNC[C@@H]4F)n3)n2cc1C(C)(O)C(F)(F)F (single isomer, unassigned) [Compound 62] | 2 nM | – | – | – | < 0.5 nM | < 0.5 nM |
| COc1cc2ncc(-c3cncc(N[C@@H]4CCCNC4)n3)n2cc1C(C)(O)C(F)(F)F (single isomer, unassigned) [Compound 63] | 2 nM | 0.7 nM | < 0.5 nM | – | – | – |
| COc1cc2ncc(-c3cncc(N[C@@H]4CCCNC4)n3)n2cc1C(C)(O)C(F)(F)F (single isomer, unassigned) [Compound 64] | 1 nM | < 0.5 nM | – | – | – | < 0.5 nM |
| CC(C)(O)c1ccc2ncc(-c3cncc(N[C@H]4CNC[C@@H]4F)n3)n2c1 [Compound 16, 2-(3-(6-(((3S,4S)-4-fluoropyrrolidin-3-yl)amino)pyrazin-2-yl)imidazo[1,2-a]pyridin-6-yl)propan-2-ol] | 237 nM | 13 nM | 5 nM | – | – | – |
